Patent publication US8883792B2, “Substituted isoquinoline derivative” (D. Western Therapeutics Institute, Inc., priority 2010, dated 2014)
Where a name gives a salt, the structure may show the parent alone.

These compounds were tested on rabbits (New Zealand White) (assay: Ocular hypotensive effect in rabbits). Conditions: male New Zealand White rabbits, 0.04 mL eye drop, concentration of 1% (w/v) or lower, maximum ocular hypotensive rate vs vehicle-treated contralateral eye.
Assay type: in vivo, rabbit
Description: The compound of the present invention was administered to rabbits (New Zealand White, sex: male, 3 to 6 per group) and evaluated for its ocular hypotensive effect.
Each test compound was dissolved in a vehicle 1 (1.04 g of sodium dihydrogen phosphate dihydrate and 0.5 g of sodium chloride dissolved in purified water and then adjusted to pH 7.0 with sodium hydroxide to make the total amount to 100 mL) or a vehicle 2 (2% (w/v) aqueous boric acid solution) to prepare a test compound solution with a predetermined concentration.
The intraocular pressures of the rabbits were measured using Tiolat TonoVet handheld tonometer immediately before administration of test compound. The test compound solution and the vehicle were dropped at a volume of 0.04 mL to one eye and the contralateral eye, respectively, and the intraocular pressures were measured over time in the same way as above. The rate of the intraocular pressure of the eye receiving the test compound solution to that of the eye receiving the vehicle was calculated as an ocular hypotensive rate.

Structure (SMILES) | Ocular hypotensive activity
C[C@H](CNCCC#N)NS(=O)(=O)c1ccc2cnccc2c1.Cl [Example 73, (R)—N-{1-(2-cyanoethylamino)propan-2-yl}isoquinoline-6-sulfonamide hydrochloride] | ++ (maximum ocular hypotensive rate of 15% or more)
C=CCNC[C@@H](C)NS(=O)(=O)c1ccc2cnccc2c1 [Example 9, (R)—N-{1-(allylamino)propan-2-yl}isoquinoline-6-sulfonamide dihydrochloride] | ++ (maximum ocular hypotensive rate of 15% or more)
C[C@H](CC(N)CCc1ccccc1)NS(=O)(=O)c1ccc2cnccc2c1 (single isomer, unassigned; diastereomer a) [Example 118] | ++ (maximum ocular hypotensive rate of 15% or more)
C[C@H](CNCCc1ccccn1)NS(=O)(=O)c1ccc2cnccc2c1.Cl [Example 81, (R)—N-[1-{2-(pyridin-2-yl)ethylamino}propan-2-yl]isoquinoline-6-sulfonamide hydrochloride] | ++ (maximum ocular hypotensive rate of 15% or more)
C[C@H](CNCCc1cccc(Cl)c1)NS(=O)(=O)c1ccc2cnccc2c1 [Example 54, (R)—N-{1-(3-chlorophenethylamino)propan-2-yl}isoquinoline-6-sulfonamide hydrochloride] | ++ (maximum ocular hypotensive rate of 15% or more)
C[C@H](CNCC(O)COc1ccccc1)NS(=O)(=O)c1ccc2cnccc2c1 (stereo partly drawn) [Example 108, N-{(2R)-1-(2-hydroxy-3-phenoxypropylamino)propan-2-yl}isoquinoline-6-sulfonamide dihydrochloride] | ++ (maximum ocular hypotensive rate of 15% or more)
C[C@H](CNC1CC1)NS(=O)(=O)c1ccc2cnccc2c1 [Example 15, (R)—N-{1-(cyclopropylamino)propan-2-yl}isoquinoline-6-sulfonamide dihydrochloride] | ++ (maximum ocular hypotensive rate of 15% or more)
C[C@H](CN1CCNCC1)NS(=O)(=O)c1ccc2cnccc2c1 [Example 13, (R)—N-{1-(piperazin-1-yl)propan-2-yl}isoquinoline-6-sulfonamide trihydrochloride] | + (maximum ocular hypotensive rate of 5% or more and less than 15%)
CCCCNC[C@H](C)NS(=O)(=O)c1ccc2cnccc2c1 [Example 6, (S)—N-{1-(butylamino)propan-2-yl}isoquinoline-6-sulfonamide dihydrochloride] | ++ (maximum ocular hypotensive rate of 15% or more)
CC(C)[C@H](CNCCc1ccccc1)NS(=O)(=O)c1ccc2cnccc2c1 [Example 27, (R)—N-{3-methyl-1-(phenethylamino)butan-2-yl}isoquinoline-6-sulfonamide dihydrochloride] | ++ (maximum ocular hypotensive rate of 15% or more)
CCCCN[C@H](C)CNS(=O)(=O)c1ccc2cnccc2c1 [Example 11, (R)—N-{2-(butylamino)propyl}isoquinoline-6-sulfonamide dihydrochloride] | + (maximum ocular hypotensive rate of 5% or more and less than 15%)
C[C@H](CNCCC1CCCCC1)NS(=O)(=O)c1ccc2cnccc2c1 [Example 33, (R)—N-{1-(2-cyclohexylethylamino)propan-2-yl}isoquinoline-6-sulfonamide dihydrochloride] | ++ (maximum ocular hypotensive rate of 15% or more)
C[C@H](CNCCc1ccccc1)NS(=O)(=O)c1ccc2c(O)nccc2c1.Cl [Example 110, (R)—N-{1-(phenethylamino)propan-2-yl}-1-hydroxyisoquinoline-6-sulfonamide hydrochloride] | ++ (maximum ocular hypotensive rate of 15% or more)
CCCNC[C@@H](C)NS(=O)(=O)c1ccc2cnccc2c1 [Example 4, (R)—N-{1-(propylamino)propan-2-yl}isoquinoline-6-sulfonamide dihydrochloride] | ++ (maximum ocular hypotensive rate of 15% or more)
C[C@H](CNC1CCCCC1)NS(=O)(=O)c1ccc2cnccc2c1.Cl [Example 61, (R)—N-{1-(cyclohexylamino)propan-2-yl}isoquinoline-6-sulfonamide hydrochloride] | ++ (maximum ocular hypotensive rate of 15% or more)
C[C@H](CNCCc1c[nH]c2ccc(Cl)cc12)NS(=O)(=O)c1ccc2cnccc2c1.Cl [Example 63, (R)—N-[1-{2-(5-chloro-1H-indol-3-yl)ethylamino}propan-2-yl]isoquinoline-6-sulfonamide hydrochloride] | + (maximum ocular hypotensive rate of 5% or more and less than 15%)
C[C@H](CNCCc1ccc(N(C)C)cc1)NS(=O)(=O)c1ccc2cnccc2c1.Cl [Example 71, (R)—N-{1-(4-dimethylaminophenethylamino)propan-2-yl}isoquinoline-6-sulfonamide hydrochloride] | ++ (maximum ocular hypotensive rate of 15% or more)
C[C@H](CNCCc1nnn[nH]1)NS(=O)(=O)c1ccc2cnccc2c1 [Example 95, (R)—N-[1-{2-(1H-tetrazol-5-yl)ethylamino}propan-2-yl]isoquinoline-6-sulfonamide dihydrochloride] | + (maximum ocular hypotensive rate of 5% or more and less than 15%)
C[C@H](CNCC(O)c1cccnc1)NS(=O)(=O)c1ccc2cnccc2c1 (stereo partly drawn) [Example 88, N-[(2R)-1-{2-hydroxy-2-(pyridin-3-yl)ethylamino}propan-2-yl]isoquinoline-6-sulfonamide dihydrochloride] | + (maximum ocular hypotensive rate of 5% or more and less than 15%)
C[C@H](CNCCCc1c[nH]c2ccccc12)NS(=O)(=O)c1ccc2cnccc2c1 [Example 80, (R)—N-[1-{3-(1H-indol-3-yl)propylamino}propan-2-yl]isoquinoline-6-sulfonamide dihydrochloride] | ++ (maximum ocular hypotensive rate of 15% or more)
C[C@H](CNCCOc1ccccc1)NS(=O)(=O)c1ccc2cnccc2c1 [Example 45, (R)—N-{1-(2-phenoxyethylamino)propan-2-yl}isoquinoline-6-sulfonamide dihydrochloride] | ++ (maximum ocular hypotensive rate of 15% or more)
CC(C)CCNC[C@@H](C)NS(=O)(=O)c1ccc2cnccc2c1.Cl [Example 21, (R)—N-{1-(isopentylamino)propan-2-yl}isoquinoline-6-sulfonamide hydrochloride] | + (maximum ocular hypotensive rate of 5% or more and less than 15%)
N[C@H](CNS(=O)(=O)c1ccc2cnccc2c1)Cc1ccccc1 [Example 116, (S)—N-(2-amino-3-phenylpropyl)isoquinoline-6-sulfonamide dihydrochloride] | + (maximum ocular hypotensive rate of 5% or more and less than 15%)
C[C@H](CNC/C=C/c1ccccc1)NS(=O)(=O)c1ccc2cnccc2c1 [Example 44, (R, E)-N-{1-(cinnamylamino)propan-2-yl}isoquinoline-6-sulfonamide dihydrochloride] | + (maximum ocular hypotensive rate of 5% or more and less than 15%)
C[C@H](CNCCc1cccc2ccccc12)NS(=O)(=O)c1ccc2cnccc2c1.Cl [Example 46] | ++ (maximum ocular hypotensive rate of 15% or more)
